Pest or weed control data for seven compounds are collected here from patent publication US20240124432A1, “HERBICIDAL COMPOUNDS” (SYNGENTA CROP PROTECTION AG, priority 2020, published 2024).

Common to all, as to type: in vivo
In one assay the test system is DIGSA. Kind of assay: Post-emergence biological efficacy. As to conditions: Digitaria sanguinalis, 312 h, evaluated after 13 days, read-out: damage to plant (100=total damage to plant; 0=no damage to plant). As to the method:
(§1) Seeds of weeds and/or crops were sown in standard soil in pots. After cultivation for 14 days under controlled conditions in a glasshouse (at 24/19° C., day/night; 16 hours light), the plants were sprayed with an aqueous spray solution derived from the formulation of the technical active ingredient in a small amount of acetone and a special solvent and emulsifier mixture referred to as IF50 (11.12% Emulsogen EL360 TM+44.44% N-methylpyrrolidone+44.44% Dowanol DPM glycol ether), to create a 50g/l solution which was then diluted using 0.2% Genapol XO80 as diluent to give the desired final dose of test compound.
(§2) The test plants were then grown under controlled conditions in the glasshouse (at 24/18° C., day/night; 15 hours light; 50% humidity)and watered twice daily. After 13 days the test was evaluated (100=total damage to plant; 0=no damage to plant).

In assay [1] the test system is ECHCG. Kind of assay: Post-emergence biological efficacy. As to conditions: Echinochloa crus-galli, 312 h, evaluated after 13 days, read-out: damage to plant (100=total damage to plant; 0=no damage to plant). As to the method:
as §1, §2

Assay [2] has as its system SETFA. Kind of assay: Post-emergence biological efficacy. To be noted: Setaria faberi, 312 h, evaluated after 13 days, read-out: damage to plant (100=total damage to plant; 0=no damage to plant). As to the method:
as §1, §2

The next assay concerns CHEAL. Kind of assay: Post-emergence biological efficacy. As to conditions: Chenopodium album, 312 h, evaluated after 13 days, read-out: damage to plant (100=total damage to plant; 0=no damage to plant). As to the method: as §1, §2
Assay [3] concerns AMAPA. Nature of the assay: Post-emergence biological efficacy. To be noted: Amaranthus palmeri, 312 h, evaluated after 13 days, read-out: damage to plant (100=total damage to plant; 0=no damage to plant). As to the method: as §1, §2
The test system of assay [4] is IPOHE. Nature of the assay: Post-emergence biological efficacy. As to conditions: Ipomoea hederacea, 312 h, evaluated after 13 days, read-out: damage to plant (100=total damage to plant; 0=no damage to plant). As to the method:
as §1, §2

In assay [5] the test system is EPHHL. Nature of the assay: Post-emergence biological efficacy. As to conditions: Euphorbia heterophylla, 312 h, evaluated after 13 days, read-out: damage to plant (100=total damage to plant; 0=no damage to plant). As to the method: as §1, §2
A further assay deals with ELEIN. Nature of the assay: Post-emergence biological efficacy. To be noted: 312 h, evaluated after 13 days, read-out: damage to plant (100=total damage to plant; 0=no damage to plant). As to the method: as §1, §2
The subject of assay [6] is LOLPE. Nature of the assay: Post-emergence biological efficacy. As to conditions: Lolium perenne, 312 h, evaluated after 13 days, read-out: damage to plant (100=total damage to plant; 0=no damage to plant). As to the method:
as §1, §2

The test system of assay [7] is ECHCG. Nature of the assay: Pre-emergence biological efficacy. As to conditions: Echinochloa crus-galli, 312 h, evaluated after 13 days, read-out: damage to plant (100=total damage to plant; 0=no damage to plant). As to the method: as §1, with “one day” for “14 days”
(§3) The test plants were then grown under controlled conditions in the glasshouse (at 24/18° C., day/night; 15 hours light; 50% humidity) and watered twice daily. After 13 days the test was evaluated (100=total damage to plant; 0=no damage to plant).

In assay [8] the test system is SETFA. Kind of assay: Pre-emergence biological efficacy. As to conditions: Setaria faberi, 312 h, evaluated after 13 days, read-out: damage to plant (100=total damage to plant; 0=no damage to plant). As to the method:
as §1, with “one day” for “14 days”
as §3

Assay [9] relates to AMAPA. Kind of assay: Pre-emergence biological efficacy. As to conditions: Amaranthus palmeri, 312 h, evaluated after 13 days, read-out: damage to plant (100=total damage to plant; 0=no damage to plant). As to the method:
as §1, with “one day” for “14 days”
as §3

Assay [10] relates to IPOHE. Kind of assay: Pre-emergence biological efficacy. To be noted: Ipomoea hederacea, 312 h, evaluated after 13 days, read-out: damage to plant (100=total damage to plant; 0=no damage to plant). As to the method:
as §1, with “one day” for “14 days”
as §3

Assay [11] deals with EPHHL. Kind of assay: Pre-emergence biological efficacy. As to conditions: Euphorbia heterophylla, 312 h, evaluated after 13 days, read-out: damage to plant (100=total damage to plant; 0=no damage to plant). As to the method:
as §1, with “one day” for “14 days”
as §3

For assay [12], the system named is LOLPE. Kind of assay: Pre-emergence biological efficacy. To be noted: Lolium perenne, 312 h, evaluated after 13 days, read-out: damage to plant (100=total damage to plant; 0=no damage to plant). As to the method: as §1, with “one day” for “14 days”
as §3

As to `CCOC(=O)C1(C)CC(c2cc(-c3ccc(C(F)(F)F)cc3Cl)c(F)cc2Cl)=NO1` (stereo not drawn) [Compound 1-7, Ethyl 3-[2-chloro-5-[2-chloro-4-(trifluoromethyl)phenyl]-4-fluoro-phenyl]-5-methyl-4H-isoxazole-5-carboxylate], the pest or weed control at 250 g/ha was determined as 40% in the assay on DIGSA; 30% in the assay on ECHCG [1]; 60% with SETFA [2]; 100% in the assay on CHEAL; 90% with AMAPA [3]; 90% with IPOHE [4]. For the same compound, the pest or weed control at 250 g/ha with EPHHL [5] worked out at 90%; in the assay on ELEIN, 70%; in the assay on LOLPE [6], 10%; with ECHCG [7], 0%; with SETFA [8] it was 0%; in the assay with AMAPA [9], 30%. The pest or weed control at 250 g/ha in the assay with IPOHE [10], in the assay on EPHHL [11] and in the assay on LOLPE [12] was 0% in each case.
As for `CCOC(=O)C1(C)CC(c2cc(-c3cc(Cl)ncc3OC)c(F)cc2Cl)=NO1` (stereo not drawn) [Compound 1-511, Ethyl 3-[2-chloro-5-(2-chloro-5-methoxy-4-pyridyl)-4-fluoro-phenyl]-5-methyl-4H-isoxazole-5-carboxylate], the pest or weed control at 250 g/ha with DIGSA worked out at 30%; with ECHCG [1], 30%; in the assay on SETFA [2], 30%; in the assay with CHEAL, 50%; in the assay on AMAPA [3], 40%; in the assay with IPOHE [4] it was 60%. In addition, the pest or weed control at 250 g/ha in the assay with EPHHL [5] turned out to be 50%; with ELEIN it was 40%; with LOLPE [6], 0%; in the assay with ECHCG [7], 0%; in the assay on SETFA [8], 0%; with AMAPA [9], 0%. The pest or weed control at 250 g/ha in the assay with IPOHE [10], in the assay on EPHHL [11] and in the assay on LOLPE [12] was 0% each time.
`CCOC(=O)C1(C)CC(c2cc(-c3ncc(C(F)(F)F)cc3F)c(F)cc2Cl)=NO1` (stereo not drawn) [Compound 1-91, Ethyl 3-[2-chloro-4-fluoro-5-[3-fluoro-5-(trifluoromethyl)-2-pyridyl]-phenyl]-5-methyl-4H-isoxazole-5-carboxylate]: the pest or weed control at 250 g/ha in the assay on DIGSA, in the assay with ECHCG [1], in the assay with SETFA [2], with CHEAL, in the assay with AMAPA [3] and in the assay with IPOHE [4] was 100% in each case. Besides, the pest or weed control at 250 g/ha in the assay on EPHHL [5], in the assay on ELEIN, in the assay with LOLPE [6], with ECHCG [7], in the assay with SETFA [8] and with AMAPA [9] was 100% throughout. Also, the pest or weed control at 250 g/ha with IPOHE [10] was 100%; with EPHHL [11] it was 100%; in the assay with LOLPE [12], 90%.
For the compound `CCOC(=O)C1(C)CC(c2cc(-c3nccnc3C)c(F)cc2Cl)=NO1` (stereo not drawn) [Compound 1-775, Ethyl 3-[2-chloro-4-fluoro-5-(3-methylpyrazin-2-yl)phenyl]-5-methyl-4H-isoxazole-5-carboxylate], the pest or weed control at 250 g/ha was 20% in the assay with DIGSA; 20% in the assay with ECHCG [1]; 50% in the assay with SETFA [2]; 60% with CHEAL; 60% in the assay with AMAPA [3]; 30% with IPOHE [4]. Besides, the pest or weed control at 250 g/ha with EPHHL [5] worked out at 40%; in the assay with ELEIN it was 50%; in the assay with LOLPE [6], 0%; with ECHCG [7] it was 0%; with SETFA [8], 0%; with AMAPA [9], 0%. Also, the pest or weed control at 250 g/ha in the assay on IPOHE [10], with EPHHL [11] and in the assay with LOLPE [12] was 0% throughout.
For the compound `CCOC(=O)C1(C)CC(c2cc(-c3ccncc3)c(F)cc2Cl)=NO1` (stereo not drawn) [Compound 1-487, Ethyl 3-[2-chloro-4-fluoro-5-(4-pyridyl)-phenyl]-5-methyl-4H-isoxazole-5-carboxylate], the pest or weed control at 250 g/ha in the assay with DIGSA turned out to be 0%; in the assay on ECHCG [1] it was 0%; with SETFA [2], 0%; in the assay with CHEAL, 0%; in the assay with AMAPA [3] it was 30%; with IPOHE [4], 0%. Further, the pest or weed control at 250 g/ha with EPHHL [5], in the assay on ELEIN, in the assay with LOLPE [6], with ECHCG [7], in the assay with SETFA [8] and with AMAPA [9] was 0% in each case. For the same compound, the pest or weed control at 250 g/ha with IPOHE [10], with EPHHL [11] and in the assay with LOLPE [12] was 0% in each case.
As to `CCOC(=O)C1(C)CC(c2cc(-c3ncc(Br)cc3Cl)c(F)cc2Cl)=NO1` (stereo not drawn) [Compound 1-559, Ethyl 3-[5-(5-bromo-3-chloro-2-pyridyl)-2-chloro-4-fluoro-phenyl]-5-methyl-4H-isoxazole-5-carboxylate], the pest or weed control at 250 g/ha in the assay on DIGSA was 80%; in the assay with ECHCG [1], 100%; in the assay on SETFA [2], 100%; in the assay with CHEAL, 100%; in the assay with AMAPA [3], 100%; in the assay on IPOHE [4] it was 100%. The pest or weed control at 250 g/ha in the assay on EPHHL [5] worked out at 100%; with ELEIN, 90%; in the assay on LOLPE [6] it was 90%; in the assay with ECHCG [7], 90%; in the assay with SETFA [8], 80%; in the assay with AMAPA [9], 100%. In addition, the pest or weed control at 250 g/ha in the assay on IPOHE [10] is 10%; in the assay with EPHHL [11] it was 50%; with LOLPE [12], 50%.
As for `CCOC(=O)C1(C)CC(c2cc(-c3cccnc3)c(F)cc2Cl)=NO1` (stereo not drawn) [Compound 1-247, Ethyl 3-[2-chloro-4-fluoro-5-(3-pyridyl)phenyl]-5-methyl-4H-isoxazole-5-carboxylate], the pest or weed control at 250 g/ha in the assay on DIGSA, in the assay on ECHCG [1], in the assay on SETFA [2], in the assay on CHEAL, with AMAPA [3] and with IPOHE [4] was 0% each time. In addition, the pest or weed control at 250 g/ha in the assay on EPHHL [5] was 10%; in the assay with ELEIN, 10%; in the assay with LOLPE [6], 0%; in the assay with ECHCG [7], 0%; in the assay on SETFA [8] it was 0%; with AMAPA [9] it was 60%. Besides, the pest or weed control at 250 g/ha in the assay on IPOHE [10], in the assay with EPHHL [11] and in the assay with LOLPE [12] was 0% in each case.
